≈ marks a conversion by molar mass, not a printed value.
tested on: Mycobacterium tuberculosis; experiment: Antimycobacterial activity against Mycobacterium bovis BCG after 6 days by Microdilution Resazurin assay; assay type: functional; settings: variant bovis BCG, 144 h

Q: How did the MIC95 turn out when CC1(C)C=Cc2c(ccc3oc4cc(-c5ccc6c(c5)oc5ccc7c(c56)C=CC(C)(C)O7)ccc4c23)O1 was run?
A: The MIC95 was greater than 200 µM.

Q: For CC1(C)C=Cc2c(ccc3oc4c(O)cccc4c23)O1, which MIC95 is on record?
A: The MIC95 was 94 µM (≈ 25 µg/mL).

Q: How did the MIC95 turn out when CC1(C)C=Cc2c(ccc3oc4cc(O)ccc4c23)O1 was run?
A: Its MIC95 is 94 µM (≈ 25 µg/mL).

Q: How did the MIC95 turn out when COc1ccc2oc3cc4c(cc3c2c1)OC(C)(C)C=C4 was run?
A: The MIC95 was 89 µM (≈ 24.9 µg/mL).

Q: Which MIC95 does the source give for CC1(C)C=Cc2c(ccc3oc4ccccc4c23)O1 here?
A: The MIC95 was 100 µM (≈ 25 µg/mL).

Q: For CC1(C)C=Cc2c(ccc3oc4ccc(O)cc4c23)O1, which MIC95 is on record?
A: Its MIC95 is 79 µM (≈ 21 µg/mL).

Q: How did the MIC95 turn out when CC1(C)C=Cc2c(ccc3c2oc2ccc4c(c23)C=CC(C)(C)O4)O1 was run?
A: Its MIC95 is greater than 300 µM.

Q: How did the MIC95 turn out when CC(=O)c1ccc2oc3ccc4c(c3c2c1)CCC(C)(C)O4 was run?
A: The MIC95 was greater than 340 µM.

Q: For COc1ccc2oc3ccc4c(c3c2c1)C=CC(C)(C)O4, which MIC95 is on record?
A: The MIC95 was 89 µM (≈ 24.9 µg/mL).

Q: For CC1(C)C=Cc2c(ccc3oc4cc(Br)ccc4c23)O1, which MIC95 is on record?
A: The MIC95 was 150 µM (≈ 49.4 µg/mL).

Q: With COc1cccc2oc3ccc4c(c3c12)C=CC(C)(C)O4 as the compound, how does the MIC95 read?
A: Its MIC95 is 89 µM (≈ 24.9 µg/mL).

Q: For CC1(C)C=Cc2c(ccc3oc4cccc(Cl)c4c23)O1, which MIC95 is on record?
A: The MIC95 was greater than 350 µM.

Q: CC1(C)C=Cc2c(ccc3oc4c(Cl)cccc4c23)O1 was tested. Which MIC95 did it give?
A: Its MIC95 is greater than 350 µM.

Q: With NNC(=O)c1ccncc1 [ISONIAZID] as the compound, how does the MIC95 read?
A: The MIC95 was 4.4 µM (≈ 0.603 µg/mL).

Q: With CC1(C)C=Cc2c(ccc3oc4ccc(Cl)cc4c23)O1 as the compound, how does the MIC95 read?
A: The MIC95 was 100 µM (≈ 28.5 µg/mL).

Q: How did the MIC95 turn out when COc1cccc2c1oc1ccc3c(c12)C=CC(C)(C)O3 was run?
A: Its MIC95 is 89 µM (≈ 24.9 µg/mL).

Q: CC1(C)CCc2c(ccc3oc4ccc(O)cc4c23)O1 was tested. Which MIC95 did it give?
A: Its MIC95 is 140 µM (≈ 37.6 µg/mL).

Q: With COc1ccc2c(c1)oc1ccc3c(c12)C=CC(C)(C)O3 as the compound, how does the MIC95 read?
A: The MIC95 was greater than 360 µM.

Q: Which MIC95 does the source give for CC1(C)C=Cc2c(ccc3oc4cccc(O)c4c23)O1 here?
A: Its MIC95 is 94 µM (≈ 25 µg/mL).
